Laboratory results: patent US20170190671A1, “BIS(ARYL)CATECHOL DERIVATIVES AS HERBICIDES” (E I DU PONT DE NEMOURS AND COMPANY, priority 2014, published 2017)

Assays:
Experiment in all cases: Test C preemergence
Format in all cases: in vivo
[1] = tested on: morningglory (Ipomoea coccinea); details: Ipomoea, pre-emergence, 336 h, scale 0 to 100, read-out: Plant response rating, Morningglory
How it was run: (§1)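 Seeds in loam-sand soil were treated preemergence, and plants at the 1- to 4-leaf stage (2-18 cm) in peat-based medium were sprayed postemergence, with test chemicals in a non-phytotoxic solvent containing surfactant. After 13-15 days in a greenhouse, response was rated visually against controls from 0 (no effect) to 100 (complete control).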

[2] = tested on: barnyardgrass (Echinochloa crus-galli); details: Echinochloa crus-galli, pre-emergence, read-out: Plant response rating, Barnyardgrass
How it was run: as §1

[3] = tested on: winter wheat (Triticum aestivum); details: Triticum aestivum, pre-emergence, 336 h, scale 0 to 100, read-out: Plant response rating, Wheat
How it was run: as §1

[4] = tested on: yellow nutsedge (Cyperus esculentus); details: Cyperus, pre-emergence, 336 h, scale 0 to 100, read-out: Plant response rating, Nutsedge, Yellow
How it was run: as §1

[5] = tested on: large (Lg) crabgrass (Digitaria sanguinalis); details: Digitaria sanguinalis, pre-emergence, 336 h, scale 0 to 100, read-out: Plant response rating, Crabgrass, Large
How it was run: as §1

[6] = tested on: johnsongrass (Sorghum halepense); details: Sorghum halepense, pre-emergence, 336 h, scale 0 to 100, read-out: Plant response rating, Johnsongrass
How it was run: as §1

[7] = tested on: Italian ryegrass (Lolium multiflorum); details: Lolium multiflorum, pre-emergence, 336 h, scale 0 to 100, read-out: Plant response rating, Ryegrass, Italian
How it was run: as §1

corn (Zea mays) = details: Zea mays, pre-emergence, 336 h, scale 0 to 100
How it was run: as §1

soybean (Glycine max) = details: Glycine max, pre-emergence, preemergence, scale 0 to 100, read-out: Plant response rating, Soybean
How it was run: as §1

[8] = tested on: blackgrass (Alopecurus myosuroides); details: Alopecurus myosuroides, pre-emergence, 336 h, scale 0 to 100, read-out: Plant response rating, Blackgrass
How it was run: as §1

[9] = tested on: velvetleaf (Abutilon theophrasti); details: Abutilon theophrasti, pre-emergence, scale 0 to 100, read-out: Plant response rating, Velvetleaf
How it was run: as §1

[10] = tested on: giant foxtail (Setaria faberii); details: Setaria faberi, pre-emergence, 336 h, scale 0 to 100, read-out: Plant response rating, Foxtail, Giant
How it was run: as §1

[11] = tested on: waterhemp (common waterhemp, Amaranthus rudis); details: Amaranthus tuberculatus, pre-emergence, scale 0 to 100, read-out: Plant response rating, Waterhemp
How it was run: as §1

[12] = tested on: oilseed rape (Brassica napus); details: Brassica napus, pre-emergence, preemergence, scale 0 to 100, read-out: Plant response rating, Oilseed Rape
How it was run: as §1

[13] = tested on: pigweed (Amaranthus retroflexus); details: Amaranthus retroflexus, pre-emergence, 336 h, scale 0 to 100, read-out: Plant response rating, Pigweed
How it was run: as §1

[14] = tested on: lambsquarters (Chenopodium album); details: Chenopodium album, pre-emergence, 336 h, scale 0 to 100, read-out: Plant response rating, Lambsquarters
How it was run: as §1

In the case of N#Cc1cccc(Oc2ncc(Br)cn2)c1Oc1ncc(Cl)cn1 [Compound 5, 3-[(5-bromo-2-pyrimidinyl)oxy]-2-[(5-chloro-2-pyrimidinyl)oxy]benzonitrile], the pest or weed control at 31 g/ha ([1]; 31 g ai/ha, preemergence) is reported as 60%, the pest or weed control at 62 g/ha ([1]; 62 g ai/ha, preemergence) is reported as 80% and the pest or weed control at 125 g/ha ([1]; 125 g ai/ha, preemergence) is reported as 95%. The pest or weed control at 16 g/ha ([1]; Preemergence, 16 g ai/ha) was 30%, the pest or weed control at 31 g/ha ([2]; 31 g ai/ha, preemergence, scale 0 to 100) was 60% and the pest or weed control at 62 g/ha ([2]; 62 g ai/ha, preemergence, scale 0 to 100) was 85%. The pest or weed control at 125 g/ha ([2]; 125 g ai/ha, preemergence, scale 0 to 100) was 98%, the pest or weed control at 16 g/ha ([2]; Preemergence, 16 g ai/ha, scale 0 to 100 (0 no effect, 100 complete control)) was 20% and the plant injury at 31 g/ha ([3]; 31 g ai/ha, preemergence) was 0%. The plant injury at 62 g/ha ([3]; 62 g ai/ha, preemergence) was 5%, the plant injury at 125 g/ha ([3]; 125 g ai/ha, preemergence) was 35% and the plant injury at 16 g/ha ([3]; Preemergence, 16 g ai/ha) was 0%. It also gave a pest or weed control at 31 g/ha ([4]; 31 g ai/ha, preemergence) of 5%, a pest or weed control at 62 g/ha ([4]; 62 g ai/ha, preemergence) of 25% and a pest or weed control at 125 g/ha ([4]; 125 g ai/ha, preemergence) of 60%. The pest or weed control at 16 g/ha ([4]; Preemergence, 16 g ai/ha) was 0%, the pest or weed control at 31 g/ha ([5]; 31 g ai/ha, preemergence) was 98% and the pest or weed control at 62 g/ha ([5]; 62 g ai/ha, preemergence) was 100%. The pest or weed control at 125 g/ha ([5]; 125 g ai/ha, preemergence) was 100%, the pest or weed control at 16 g/ha ([5]; Preemergence, 16 g ai/ha) was 70% and the pest or weed control at 31 g/ha ([6]; 31 g ai/ha, preemergence) was 40%. The pest or weed control at 62 g/ha ([6]; 62 g ai/ha, preemergence) was 70%, the pest or weed control at 125 g/ha ([6]; 125 g ai/ha, preemergence) was 80% and the pest or weed control at 16 g/ha ([6]; Preemergence, 16 g ai/ha) was 0%. It also gave a pest or weed control at 31 g/ha ([7]; 31 g ai/ha, preemergence) of 5%, a pest or weed control at 62 g/ha ([7]; 62 g ai/ha, preemergence) of 55% and a pest or weed control at 125 g/ha ([7]; 125 g ai/ha, preemergence) of 60%. For the same compound, the pest or weed control at 16 g/ha ([7]; Preemergence, 16 g ai/ha) was 0%, the Corn plant response rating (crop injury, 0 = no effect, 100 = complete kill) at 31 g/ha (corn (Zea mays); 31 g ai/ha, preemergence) was 25% and the Corn plant response rating (crop injury, 0 = no effect, 100 = complete kill) at 62 g/ha (corn (Zea mays); 62 g ai/ha, preemergence) was 60%. For the same compound, the Corn plant response rating (crop injury, 0 = no effect, 100 = complete kill) at 125 g/ha (corn (Zea mays); 125 g ai/ha, preemergence) was 75%, the Corn plant response rating (crop injury, 0 = no effect, 100 = complete kill) at 16 g/ha (corn (Zea mays); Preemergence, 16 g ai/ha) was 5% and the plant injury at 31 g/ha (soybean (Glycine max); 31 g ai/ha) was 45%. It also gave a plant injury at 62 g/ha (soybean (Glycine max); 62 g ai/ha) of 65%, a plant injury at 125 g/ha (soybean (Glycine max); 125 g ai/ha) of 85% and a pest or weed control at 31 g/ha ([8]; 31 g ai/ha, preemergence) of 30%. It also gave a pest or weed control at 62 g/ha ([8]; 62 g ai/ha, preemergence) of 40%, a pest or weed control at 125 g/ha ([8]; 125 g ai/ha, preemergence) of 70% and a pest or weed control at 16 g/ha ([8]; Preemergence, 16 g ai/ha) of 10%. The pest or weed control at 31 g/ha ([9]; 31 g ai/ha, preemergence) was 90%, the pest or weed control at 62 g/ha ([9]; 62 g ai/ha, preemergence) was 100% and the pest or weed control at 125 g/ha ([9]; 125 g ai/ha, preemergence) was 100%. For the same compound, the pest or weed control at 16 g/ha ([9]; Preemergence, 16 g ai/ha) was 60%, the pest or weed control at 31 g/ha ([10]; 31 g ai/ha, preemergence) was 80% and the pest or weed control at 62 g/ha ([10]; 62 g ai/ha, preemergence) was 100%. For the same compound, the pest or weed control at 125 g/ha ([10]; 125 g ai/ha, preemergence) was 100%, the pest or weed control at 16 g/ha ([10]; Preemergence, 16 g ai/ha) was 30% and the pest or weed control at 31 g/ha ([11]; 31 g ai/ha, preemergence) was 100%. It also gave a pest or weed control at 62 g/ha ([11]; 62 g ai/ha, preemergence) of 100%, a pest or weed control at 125 g/ha ([11]; 125 g ai/ha, preemergence) of 100% and a pest or weed control at 16 g/ha ([11]; Preemergence, 16 g ai/ha) of 85%. For the same compound, the plant injury at 31 g/ha ([12]; 31 g ai/ha) was 70%, the plant injury at 62 g/ha ([12]; 62 g ai/ha) was 98% and the plant injury at 125 g/ha ([12]; 125 g ai/ha) was 100%. For the same compound, the pest or weed control at 31 g/ha ([13]; 31 g ai/ha, preemergence) was 100%, the pest or weed control at 62 g/ha ([13]; 62 g ai/ha, preemergence) was 100% and the pest or weed control at 125 g/ha ([13]; 125 g ai/ha, preemergence) was 100%. For the same compound, the pest or weed control at 16 g/ha ([13]; Preemergence, 16 g ai/ha) was 100%, the pest or weed control at 31 g/ha ([14]; 31 g ai/ha, preemergence) was 100% and the pest or weed control at 62 g/ha ([14]; 62 g ai/ha, preemergence) was 100%. The pest or weed control at 125 g/ha ([14]; 125 g ai/ha, preemergence) was 100% and the pest or weed control at 16 g/ha ([14]; Preemergence, 16 g ai/ha) was 80%.
